Tested on: Calu-6 tumour xenograft
Experiment: Calu-6 tumour xenograft in vivo solid tumour model
Settings: once-daily oral, 28 days

## COc1cc2c(Oc3ccc4[nH]c(C)cc4c3F)ncnc2cc1OCCCN1CCCC1 [AZD2171, 4-(4-fluoro-2-methyl-1H-indol-5-yloxy)-6-methoxy-7-(3-(pyrrolidin-1-yl)propoxy)quinazoline]
1.5 mg/kg/day, P<0.01 one-tailed t test
  inhibition of Calu-6 tumour xenograft growth: 49%
3 mg/kg/day, P<0.0001 one-tailed t test
  inhibition of Calu-6 tumour xenograft growth: 69%
6 mg/kg/day, P<0.0001 one-tailed t test
  inhibition of Calu-6 tumour xenograft growth: 91%

Source: patent publication US20080125447A1, “Combination Therapy” (priority 2004, published 2008)
